# Test results: paper PMC7897990, “TriTOX: A novel Trichomonas vaginalis assay platform for high-throughput screening of compound libraries” (International Journal for Parasitology: Drugs and Drug …, 2021)
# Key:
# T. vaginalis [1] = assay: Medium-throughput (MTS) confirmatory dose-response growth assay, T. vaginalis; type: cell-based, Trichomonas vaginalis; conditions: Trichomonas vaginalis; 96-well, 10,000 cells/mL in 50 μL, 48 h, mean ± SEM; >10 = no appreciable activity at highest dose
# Procedure: (§1) For microtiter plate assays, trichomonads were grown in anaerobic conditions within GasPak EZ anaerobe pouches with fresh anaerobic sachets. Working reagent of the chromogen was phenol red (Sigma) in a 1% w/v working solution in phosphate buffered saline (PBS), which was filter sterilised. Chromogen absorbance was monitored at 570 nm on an absorbance microplate reader after plates were allowed to equilibrate in atmospheric conditions at room temperature for at least 5 min.
# (§2) After absorbances were measured, data were processed as followed unless indicated otherwise in the text. […] Prism 8 (GraphPad) was used to plot dose-response curves and calculate IC50 values, using a least squares regression, log[inhibitor] vs normalised response (variable slope, four parameters) model. Where replicate plates were used, data for dose-response curves were plotted as the mean±SD of these replicates.
# (§3) A selection of 17 compounds assayed in the high-throughput screen (HTS) for T. vaginalis which were available through BioAustralis were obtained for validation of inhibitory in/activity in our optimised medium-throughput format. For this, a 10-point serial dilution was used for drug-susceptibility testing to calculate IC50 values of ‘hit’ compounds. Mtz was used as a positive control. Each screen was performed with 3 technical replicates and a minimum of 2 biological replicates in both T. vaginalis and T. foetus using assay conditions of seeds of 10,000 cells/mL in 50 μL, with absorbance measured at 48 h. Dose response curves and IC50 were calculated for each compound as described above in Section 2.3.
# T. foetus [2] = assay: Medium-throughput (MTS) confirmatory dose-response growth assay, T. foetus; type: cell-based, Tritrichomonas foetus; conditions: Tritrichomonas foetus; 96-well, 10,000 cells/mL in 50 μL, 48 h, mean ± SEM; >10 = no appreciable activity at highest dose
# Procedure: as §1, §2, §3
# T. vaginalis [3] = assay: Pre-optimisation Mtz drug-sensitivity testing, 96-well, T. vaginalis; type: cell-based; conditions: Trichomonas vaginalis
# Procedure: as §1, §2
# (§4) Trichomonad growth assays were assessed via Mtz drug-sensitivity testing in a medium throughput format (96-wells). Mtz was screened as two-fold, 10-point dilutions between 100 and 0.2 μM. For both T. foetus and T. vaginalis conditions were 5% (v/v) chromogen, well volumes of 100 μL and 200 μL and seeds of 10,000 and 20,000 cells/mL, and absorbance measured at 40 and 65 h. Mtz dose-response curves were plotted and Mtz IC50 calculated for both species, as well as the Z′ for each combination of conditions (volume, seed, timepoint) based on 4 technical replicates as described in Section 2.3.
# T. foetus [4] = assay: Pre-optimisation Mtz drug-sensitivity testing, 96-well, T. foetus; type: cell-based; conditions: Tritrichomonas foetus
# Procedure: as §1, §2, §4
# T. vaginalis [5] = assay: Miniaturised Mtz drug-sensitivity assay, 96-well plates; type: cell-based; conditions: Trichomonas vaginalis
# Procedure: as §1, §2
# (§5) Miniaturised assay formats were assessed via Mtz drug-sensitivity for T. vaginalis in 96-well and 384-well plate formats using 5% (v/v) chromogen. For medium-throughput formats, seeds of 15,000 and 50,000 cells/mL were used in well volumes of 50 μL and 100 μL. For high-throughput formats, 25 μL well volumes were evaluated using seeds of 10,000, 20,000 and 40,000 cells/mL, while 50 μL well volumes used seeds of 5000, 10,000 and 20,000 cells/mL.
# T. vaginalis [6] = assay: Miniaturised Mtz drug-sensitivity assay, 384-well plates; type: cell-based; conditions: Trichomonas vaginalis
# Procedure: as §1, §2, §5
compound,measurement,setting,value
Cc1ncc([N+](=O)[O-])n1CCO [Metronidazole],IC50,T. vaginalis [1],1.4 ± 0.2 µM
same,IC50,T. foetus [2],1.2 ± 0.1 µM
same,IC50,"T. vaginalis [3]; 40 h, Cα: 10 cells/µL, 100 µL, 40 h, read-out: Mtz IC50 T. vaginalis",1.63 µM
same,IC50,"T. vaginalis [3]; 40 h, Cβ: 20 cells/µL, 100 µL, 40 h, read-out: Mtz IC50 T. vaginalis",2.64 µM
same,IC50,"T. vaginalis [3]; 40 h, Cγ: 10 cells/µL, 200 µL, 40 h, read-out: Mtz IC50 T. vaginalis",1.63 µM
same,IC50,"T. vaginalis [3]; 40 h, Cδ: 20 cells/µL, 200 µL, 40 h, read-out: Mtz IC50 T. vaginalis",2.16 µM
same,IC50,"T. vaginalis [3]; 40 h, pre-optimisation, 40 h, read-out: Mtz IC50 T. vaginalis, across conditions",2 ± 0.2 µM
same,IC50,"T. vaginalis [3]; 65 h, Cα: 10 cells/µL, 100 µL, 65 h, read-out: Mtz IC50 T. vaginalis",3.09 µM
same,IC50,"T. vaginalis [3]; 65 h, Cβ: 20 cells/µL, 100 µL, 65 h, read-out: Mtz IC50 T. vaginalis",3.21 µM
same,IC50,"T. vaginalis [3]; 65 h, Cγ: 10 cells/µL, 200 µL, 65 h, read-out: Mtz IC50 T. vaginalis",2.67 µM
same,IC50,"T. vaginalis [3]; 65 h, Cδ: 20 cells/µL, 200 µL, 65 h, read-out: Mtz IC50 T. vaginalis",3.19 µM
same,IC50,"T. vaginalis [3]; 65 h, pre-optimisation, 65 h, read-out: Mtz IC50 T. vaginalis, across conditions",3 ± 0.1 µM
same,IC50,"T. foetus [4]; 40 h, Cα: 10 cells/µL, 100 µL, 40 h, read-out: Mtz IC50 T. foetus",1.17 µM
same,IC50,"T. foetus [4]; 40 h, Cβ: 20 cells/µL, 100 µL, 40 h, read-out: Mtz IC50 T. foetus",1.31 µM
same,IC50,"T. foetus [4]; 40 h, Cγ: 10 cells/µL, 200 µL, 40 h, read-out: Mtz IC50 T. foetus",1.19 µM
same,IC50,"T. foetus [4]; 40 h, Cδ: 20 cells/µL, 200 µL, 40 h, read-out: Mtz IC50 T. foetus",1.23 µM
same,IC50,"T. foetus [4]; 40 h, pre-optimisation, 40 h, read-out: Mtz IC50 T. foetus, across conditions",1.2 µM
same,IC50,"T. foetus [4]; 65 h, Cα: 10 cells/µL, 100 µL, 65 h, read-out: Mtz IC50 T. foetus",2.17 µM
same,IC50,"T. foetus [4]; 65 h, Cβ: 20 cells/µL, 100 µL, 65 h, read-out: Mtz IC50 T. foetus",2.7 µM
same,IC50,"T. foetus [4]; 65 h, Cγ: 10 cells/µL, 200 µL, 65 h, read-out: Mtz IC50 T. foetus",2.07 µM
same,IC50,"T. foetus [4]; 65 h, Cδ: 20 cells/µL, 200 µL, 65 h, read-out: Mtz IC50 T. foetus",2.38 µM
same,IC50,"T. foetus [4]; 65 h, pre-optimisation, 65 h, read-out: Mtz IC50 T. foetus, across conditions",2.3 ± 0.1 µM
same,IC50,"T. vaginalis [5]; 24 h, C2: 96-well, 50 cells/µL, 50 µL, 24 h",2.18 µM
same,IC50,"T. vaginalis [5]; 24 h, C3: 96-well, 15 cells/µL, 100 µL, 24 h",2.91 µM
same,IC50,"T. vaginalis [5]; 24 h, C4: 96-well, 50 cells/µL, 100 µL, 24 h",2.23 µM
same,IC50,"T. vaginalis [5]; 36 h, C1: 96-well, 15 cells/µL, 50 µL, 36 h",1.16 µM
same,IC50,"T. vaginalis [5]; 36 h, C2: 96-well, 50 cells/µL, 50 µL, 36 h",3.74 µM
same,IC50,"T. vaginalis [5]; 36 h, C3: 96-well, 15 cells/µL, 100 µL, 36 h",1.34 µM
same,IC50,"T. vaginalis [5]; 36 h, C4: 96-well, 50 cells/µL, 100 µL, 36 h",3.45 µM
same,IC50,"T. vaginalis [5]; 48 h, C1: 96-well, 15 cells/µL, 50 µL, 48 h",1.58 µM
same,IC50,"T. vaginalis [5]; 48 h, C2: 96-well, 50 cells/µL, 50 µL, 48 h",3.49 µM
same,IC50,"T. vaginalis [5]; 48 h, C3: 96-well, 15 cells/µL, 100 µL, 48 h",1.96 µM
same,IC50,"T. vaginalis [5]; 48 h, C4: 96-well, 50 cells/µL, 100 µL, 48 h",5.01 µM
same,IC50,"T. vaginalis [6]; 24 h, C5: 384-well, 250 cells/well, 25 µL, 24 h",1.22 µM
same,IC50,"T. vaginalis [6]; 24 h, C6: 384-well, 500 cells/well, 25 µL, 24 h",2.02 µM
same,IC50,"T. vaginalis [6]; 24 h, C7: 384-well, 1000 cells/well, 25 µL, 24 h",3.21 µM
same,IC50,"T. vaginalis [6]; 24 h, C8: 384-well, 250 cells/well, 50 µL, 24 h",0.759 µM
same,IC50,"T. vaginalis [6]; 24 h, C9: 384-well, 500 cells/well, 50 µL, 24 h",1.36 µM
same,IC50,"T. vaginalis [6]; 24 h, C10: 384-well, 1000 cells/well, 50 µL, 24 h",2.33 µM
same,IC50,"T. vaginalis [6]; 36 h, C5: 384-well, 250 cells/well, 25 µL, 36 h",0.623 µM
same,IC50,"T. vaginalis [6]; 36 h, C6: 384-well, 500 cells/well, 25 µL, 36 h",0.888 µM
same,IC50,"T. vaginalis [6]; 36 h, C7: 384-well, 1000 cells/well, 25 µL, 36 h",1.89 µM
same,IC50,"T. vaginalis [6]; 36 h, C8: 384-well, 250 cells/well, 50 µL, 36 h",0.672 µM
same,IC50,"T. vaginalis [6]; 36 h, C9: 384-well, 500 cells/well, 50 µL, 36 h",0.703 µM
same,IC50,"T. vaginalis [6]; 36 h, C10: 384-well, 1000 cells/well, 50 µL, 36 h",0.893 µM
same,IC50,"T. vaginalis [6]; 48 h, C5: 384-well, 250 cells/well, 25 µL, 48 h",1.55 µM
same,IC50,"T. vaginalis [6]; 48 h, C6: 384-well, 500 cells/well, 25 µL, 48 h",2.9 µM
same,IC50,"T. vaginalis [6]; 48 h, C7: 384-well, 1000 cells/well, 25 µL, 48 h",4.31 µM
same,IC50,"T. vaginalis [6]; 48 h, C8: 384-well, 250 cells/well, 50 µL, 48 h",1.34 µM
same,IC50,"T. vaginalis [6]; 48 h, C9: 384-well, 500 cells/well, 50 µL, 48 h",1.5 µM
same,IC50,"T. vaginalis [6]; 48 h, C10: 384-well, 1000 cells/well, 50 µL, 48 h",3.03 µM
